Measured values published in patent publication US4999374A, “Veterinary treatment” (priority 1987, dated 1991).
Where “and” joins values, the source holds several entries; their conditions need not be identical. Equal values may be shown once. Read-outs that look alike come from different tables or passages of the source. Values belong to the compound of their own block, whether it stands above or below them.

Legend:
T. hyodysenteriae [1] = test: MIC of M139603 against thirteen T. hyodysenteriae isolates vs salinomycin and dimetridazole (Example 1, Table 1); format: cell-based, Treponema hyodysenteriae; conditions: Brachyspira hyodysenteriae
Method: The minimum inhibitory concentration of M139603 was tested in parallel with dimetridazole (May & Baker) and the growth-promoting polyether antibiotic salinomycin (Hoechst) against thirteen strains of T. hyodysenteriae.

T. hyodysenteriae [2] = test: Comparative efficacy of M139603 and lasalocid in experimentally infected mice (Example 4, Table 4); format: in vivo, mice (strain MF-1); conditions: for Mean (log10) viable treponemes per gram caecal contents / Viable treponemes per gram caecal contents: 5 days; for Mean (log10) viable treponemes per gram caecal contents: group mean (table); for Viable treponemes per gram caecal contents: individual mice
Text: (§1) The infection leads to varying degrees of caecitis, the lesions of which are apparent in animals killed on or about the sixth day post-infection. Caecal specimens examined by bacteriological culture techniques applicable for enumeration of organisms reveal the presence of high populations of T.hyodysenteriae. This disease-model was used in experiments to compare the efficacy of M139603 with that of salinomycin, lasalocid and monensin in suppressing the infection.
(§2) In this study, the efficacy of M139603 was tested at 25 ppm feed and that of monensin (Eli Lilly) at 50 or 100 ppm. Groups of infected mice, five per group, were offered the drugs in the feed on five continuous days before killing. Caecal materials were subjected to bacteriological examination to enumerate the populations of viable treponemes per gram of material. […] The group mean in respect of the unmedicated groups was 7.9 cfu/g.
In this study, the efficacy of M139603 was tested at 20 ppm feed and that of lasalocid (Hoffman la Roche) at 20, 40 and 80 ppm. The test procedures were similar to those above except for the size of the inoculum of T.hyodysenteriae (1.2×10^7 cfu) used in infecting each mouse. […] The mean (log10) counts of viable treponemes found in the caecal contents of the various groups were: 2.5 cfu/g caecum (139603 at 20 ppm), 7.35 cfu (lasalocid at 20 ppm), 7.45 cfu (lasalocid at 40 ppm), 3.81 cfu (lasalocid at 80 ppm) and 8.50 cfu (unmedicated control).

T. hyodysenteriae [3] = test: Comparative efficacy of M139603 and monensin in experimentally infected mice (Example 2, Table 2); format: in vivo, mice (strain MF-1); conditions: for Mean (log10) viable treponemes per gram caecum & contents / Viable treponemes per gram caecum & contents: 5 days; for Mean (log10) viable treponemes per gram caecum & contents: group mean; for Viable treponemes per gram caecum & contents: individual mice
Text: as §1, §2

T. hyodysenteriae [4] = test: Comparative efficacy of M139603 and salinomycin in experimentally infected mice (Example 3, Table 3); format: in vivo, mice (strain MF-1); conditions: for Mean (log10) viable treponemes per gram caecum & contents / Viable treponemes per gram caecum & contents: 5 days; for Mean (log10) viable treponemes per gram caecum & contents: group mean; for Viable treponemes per gram caecum & contents: individual mice
Text: as §1, §2
In this study, the efficacy of M139603 was tested at 30 ppm and that of salinomycin at 30, 40 or 60 ppm feed. The mouse-groups and test-procedureswere simi-ar to those applied under Example 2 above.

MIC (T. hyodysenteriae [1]; isolate B78, read-out: MIC): 3 µg/mL
MIC (T. hyodysenteriae [1]; isolate S82/6, read-out: MIC): 30 µg/mL
MIC (T. hyodysenteriae [1]; isolate S82/7, read-out: MIC): 30 µg/mL
MIC (T. hyodysenteriae [1]; isolate S83/1, read-out: MIC): 30 µg/mL
MIC (T. hyodysenteriae [1]; isolate S83/2, read-out: MIC): 3 µg/mL
MIC (T. hyodysenteriae [1]; isolate S83/5, read-out: MIC): 3 µg/mL
MIC (T. hyodysenteriae [1]; isolate S85/1, read-out: MIC): 30 µg/mL
MIC (T. hyodysenteriae [1]; isolate S85/2, read-out: MIC): 10 µg/mL
MIC (T. hyodysenteriae [1]; isolate S85/3, read-out: MIC): 10 µg/mL
MIC (T. hyodysenteriae [1]; isolate S85/8, read-out: MIC): 3 µg/mL
MIC (T. hyodysenteriae [1]; isolate S85/9, read-out: MIC): 5 µg/mL
MIC (T. hyodysenteriae [1]; isolate S86/1, read-out: MIC): < 0.5 µg/mL
MIC (T. hyodysenteriae [1]; isolate S86/2, read-out: MIC): 10 µg/mL
MIC (T. hyodysenteriae [1]; mean of 13 strains (table), read-out: Mean MIC): 12.9 µg/mL
Structure (SMILES): Cc1ncc([N+](=O)[O-])n1C [Dimetridazole, dimetridazole]

Structure (SMILES): CC[C@@H](C(=O)[C@@H](C)[C@@H](O)[C@H](C)CCc1ccc(C)c(O)c1C(=O)O)[C@H]1O[C@](CC)([C@H]2CC[C@](O)(CC)[C@H](C)O2)C[C@@H]1C [Lasalocid, lasalocid]
Mean (log10) viable treponemes per gram caecal contents (T. hyodysenteriae [2]; 20 ppm feed): 7.35 log10 per gram
Viable treponemes per gram caecal contents (T. hyodysenteriae [2]; 20 ppm feed): 3.2 × 10^8 per gram and 1.1 × 10^4 per gram and 2.9 × 10^7 per gram and 1.7 × 10^8 per gram
Mean (log10) count of viable treponemes in caecal contents (T. hyodysenteriae [2]; 20 ppm feed): 7.35 cfu/g caecum
Mean (log10) viable treponemes per gram caecal contents (T. hyodysenteriae [2]; 40 ppm feed): 7.45 log10 per gram
Viable treponemes per gram caecal contents (T. hyodysenteriae [2]; 40 ppm feed): 3.0 × 10^ 6 per gram and 1.4 × 10^8 per gram and 2.1 × 10^8 per gram and 1.7 × 10^7 per gram and 1.2 × 10^7 per gram
Mean (log10) count of viable treponemes in caecal contents (T. hyodysenteriae [2]; 40 ppm feed): 7.45 cfu/g caecum
Mean (log10) viable treponemes per gram caecal contents (T. hyodysenteriae [2]; 80 ppm feed): 3.81 log10 per gram
Viable treponemes per gram caecal contents (T. hyodysenteriae [2]; 80 ppm feed): 4.0 × 10^4 per gram and 0 per gram and 1.0 × 10^6 per gram and 1.3 × 10^5 per gram and 2.3 × 10^3 per gram
Mean (log10) count of viable treponemes in caecal contents (T. hyodysenteriae [2]; 80 ppm feed): 3.81 cfu/g caecum

Structure (SMILES): CC[C@@]1([C@@H]2O[C@@H]([C@H]3O[C@@](O)(CO)[C@H](C)C[C@@H]3C)C[C@@H]2C)CC[C@H]([C@]2(C)CC[C@]3(C[C@H](O)[C@@H](C)[C@@H]([C@@H](C)[C@@H](OC)[C@H](C)C(=O)O)O3)O2)O1 [Monensin, monensin]
Animals yielding high populations of viable treponema (T. hyodysenteriae [3]; 50 ppm feed): four out of five
Suppression of infection (T. hyodysenteriae [3]; 50 ppm feed): ineffective
Mean (log10) viable treponemes per gram caecum & contents (T. hyodysenteriae [3]; 50 ppm feed): 5.2 log10 per gram
Viable treponemes per gram caecum & contents (T. hyodysenteriae [3]; 50 ppm feed): 1.74 × 10^8 per gram and 2.90 × 10^7 per gram and 1.0 × 10^5 per gram and negative and 2.0 × 10^5 per gram
Populations of viable treponema (range) (T. hyodysenteriae [3]; 50 ppm feed, four of five animals): 1.0×10^5 -1.7×10^8 cfu/g
Group mean (log10) viable treponema (T. hyodysenteriae [3]; 50 ppm feed, log10): 5.2 cfu/g caecum
Suppression of infection (T. hyodysenteriae [3]; 100 ppm feed): suppressed the infection
Mean (log10) viable treponemes per gram caecum & contents (T. hyodysenteriae [3]; 100 ppm feed): 0 log10 per gram
Viable treponemes per gram caecum & contents (T. hyodysenteriae [3]; 100 ppm feed, limit of detection <1.0 × 10^2): negative

Structure (SMILES): CC[C@@H](C(=O)[C@@H](C)[C@@H](O)[C@H](C)[C@@H]1O[C@@H]([C@@H](CC)C(=O)O)CC[C@@H]1C)[C@H]1O[C@]2(C=C[C@@H](O)[C@]3(CC[C@@](C)([C@H]4CC[C@](O)(CC)[C@H](C)O4)O3)O2)[C@H](C)C[C@@H]1C [Salinomycin, salinomycin]
Suppression of infection (T. hyodysenteriae [4]; 30, 40 or 60 ppm feed): failed to do so, even at 60 ppm
Mean (log10) viable treponemes per gram caecum & contents (T. hyodysenteriae [4]; 30 ppm feed): 3.86 log10 per gram
Viable treponemes per gram caecum & contents (T. hyodysenteriae [4]; 30 ppm feed): negative and 6.0 × 10^6 per gram and 5.4 × 10^5 per gram
Mean (log10) viable treponemes per gram caecum & contents (T. hyodysenteriae [4]; 40 ppm feed): 6.03 log10 per gram
Viable treponemes per gram caecum & contents (T. hyodysenteriae [4]; 40 ppm feed): 6.0 × 10^6 per gram and 1.8 × 10^6 per gram and 1.6 × 10^5 per gram and 4.3 × 10^5 per gram
Mean (log10) viable treponemes per gram caecum & contents (T. hyodysenteriae [4]; 60 ppm feed): 5.52 log10 per gram
Viable treponemes per gram caecum & contents (T. hyodysenteriae [4]; 60 ppm feed): 1.3 × 10^7 per gram and 2.0 × 10^4 per gram and 1.0 × 10^6 per gram and 1.0 × 10^4 per gram and 1.5 × 10^6 per gram
MIC (T. hyodysenteriae [1]; isolate B78): 1 µg/mL
MIC (T. hyodysenteriae [1]; isolate S82/6): 0.75 µg/mL
MIC (T. hyodysenteriae [1]; isolate S82/7): 0.75 µg/mL
MIC (T. hyodysenteriae [1]; isolate S83/1): 0.75 µg/mL
MIC (T. hyodysenteriae [1]; isolate S83/2): 1 µg/mL
MIC (T. hyodysenteriae [1]; isolate S83/5): < 0.1 µg/mL
MIC (T. hyodysenteriae [1]; isolate S85/1): 0.75 µg/mL
MIC (T. hyodysenteriae [1]; isolate S85/2): 1 µg/mL
MIC (T. hyodysenteriae [1]; isolate S85/3): 0.75 µg/mL
MIC (T. hyodysenteriae [1]; isolate S85/8): 0.75 µg/mL
MIC (T. hyodysenteriae [1]; isolate S85/9): 0.5 µg/mL
MIC (T. hyodysenteriae [1]; isolate S86/1): < 0.1 µg/mL
MIC (T. hyodysenteriae [1]; isolate S86/2): 0.75 µg/mL
MIC (T. hyodysenteriae [1]; read-out: Mean MIC, mean of 13 strains (table)): 0.68 µg/mL
